Among the test systems are A549; ACHN; CAKI-1; DU-145; HCT-15; HOP-62; HT-29; K562; KM12; LOX IMVI; M14; MDA-N; NCI-H226; OVCAR-4; SK-MEL-2; SK-MEL-5; SK-OV-3; SR; TK-10; UACC-257.
What all share (assay): growth of human tumour cells (NCI), 48 h

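1) Cells in 96-well plates. 2) Compound, 48 h, 5 concentrations. 3) Linear interpolation between surrounding doses. 4) Unreached endpoint = highest concentration. Here, GI50 denotes the concentration required for 50% inhibition of growth.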 Calls of active or inactive are those of the source. No stated cut-off is given here; in the data, active = GI50 up to about 1.1 µM and inactive = higher.

Turning to `C=CC(=O)N1C/C(=C\c2ccccc2)C(=O)/C(=C/c2ccccc2)C1`, the GI50 in the assay on A549 was 2.92 µM (inactive); in the assay on ACHN, 1.83 µM (inactive); with CAKI-1, 2.83 µM (inactive); with DU-145, 5.13 µM (inactive); in the assay on HCT-15 it was 1.18 µM; in the assay with HOP-62, 2.33 µM (inactive). Besides, the GI50 was 0.467 µM (active) in the assay with HT-29; 0.265 µM (active) in the assay with K562; 0.989 µM (active) in the assay with KM12; 0.254 µM (active) with LOX IMVI; 1.71 µM (inactive) in the assay with M14; 0.318 µM (active) with MDA-N. The GI50 was 3.85 µM (inactive) with NCI-H226; 2.16 µM (inactive) in the assay with OVCAR-4; 2.1 µM (inactive) in the assay on SK-MEL-2; 1.61 µM (inactive) in the assay on SK-MEL-5; 2.58 µM (inactive) with SK-OV-3; 0.476 µM (active) in the assay with SR. The GI50 in the assay with TK-10 is 2.88 µM (inactive); with UACC-257, 1.92 µM (inactive).
Consider `CC(=O)OCCN1c2ccccc2Sc2cnccc21`, for which the GI50 was > 10 µM (inactive) in the assay with A549; > 10 µM (inactive) with ACHN; > 10 µM (inactive) in the assay on CAKI-1; > 10 µM (inactive) in the assay with DU-145; more than 10 µM in the assay with HCT-15; > 10 µM (inactive) with HOP-62. Besides, the GI50 in the assay with HT-29 was > 10 µM (inactive); in the assay with K562 it was > 10 µM (inactive); with KM12, 0.067 µM (active); in the assay with LOX IMVI, > 10 µM (inactive); in the assay on M14, > 10 µM (inactive); in the assay with MDA-N, > 10 µM (inactive). The GI50 with NCI-H226, in the assay on OVCAR-4, with SK-MEL-2, in the assay with SK-MEL-5, in the assay on SK-OV-3 and with SR was > 10 µM (inactive) each time. Besides, the GI50 in the assay on TK-10 and in the assay on UACC-257 was > 10 µM (inactive) throughout.
In the case of `NCCCc1nonc1C(=O)O`, the GI50 in the assay on A549 was > 100 µM (inactive); in the assay on ACHN, > 100 µM (inactive); with CAKI-1, > 100 µM (inactive); in the assay with DU-145, > 100 µM (inactive); with HCT-15, more than 100 µM; in the assay on HOP-62 it was > 100 µM (inactive). Moreover, the GI50 in the assay on HT-29, with K562, in the assay on KM12, with LOX IMVI, with M14 and in the assay with MDA-N was > 100 µM (inactive) throughout. Also, the GI50 with NCI-H226, in the assay with OVCAR-4, in the assay on SK-MEL-2, in the assay on SK-MEL-5, in the assay on SK-OV-3 and in the assay on SR was > 100 µM (inactive) throughout. The GI50 with TK-10 and with UACC-257 was > 100 µM (inactive) in each case.
For `COc1ccc2c(c1)-c1nc(=S)n(CCCN(C)C)c3ccc([N+](=O)[O-])c(c13)N2`, the GI50 is 0.363 µM (active) with A549; 0.296 µM (active) in the assay with ACHN; 1.68 µM (inactive) in the assay on CAKI-1; 0.689 µM (active) in the assay on DU-145; 0.484 µM in the assay on HCT-15; 0.451 µM (active) in the assay on HOP-62. Also, the GI50 is 0.261 µM (active) with HT-29; 0.454 µM (active) in the assay on K562; 0.543 µM (active) in the assay on KM12; 0.53 µM (active) in the assay with LOX IMVI; 8.26 µM (inactive) with M14; 0.815 µM (active) in the assay on MDA-N. Besides, the GI50 was 1.36 µM (inactive) in the assay with NCI-H226; 1.13 µM (inactive) in the assay with OVCAR-4; 14.7 µM (inactive) in the assay on SK-MEL-2; 1.14 µM (inactive) in the assay with SK-MEL-5; 1.11 µM (active) with SK-OV-3; 0.506 µM (active) in the assay on SR. Besides, the GI50 with TK-10 was 2.8 µM (inactive); in the assay on UACC-257, 1.22 µM (inactive).
Take `CC(C)(CN)SCc1ccccc1`: the GI50 was > 100 µM (inactive) in the assay on A549; > 100 µM (inactive) in the assay on ACHN; > 100 µM (inactive) with CAKI-1; > 100 µM (inactive) in the assay on DU-145; more than 100 µM in the assay with HCT-15; > 100 µM (inactive) in the assay on HOP-62. Moreover, the GI50 with HT-29, in the assay on K562, with KM12, with LOX IMVI, with M14 and with MDA-N was > 100 µM (inactive) throughout. The GI50 with NCI-H226, in the assay on OVCAR-4, in the assay on SK-MEL-2, with SK-MEL-5, in the assay with SK-OV-3 and with SR was > 100 µM (inactive) in each case. For the same compound, the GI50 in the assay on TK-10 is > 100 µM (inactive); in the assay with UACC-257, 28.7 µM (inactive).
For the compound `Nc1ncnc2c1ncn2CC(O)C(=O)O` (centres undefined), the GI50 was > 100 µM (inactive) in the assay on A549; > 100 µM (inactive) with ACHN; > 100 µM (inactive) in the assay on CAKI-1; > 100 µM (inactive) in the assay on DU-145; more than 100 µM in the assay with HCT-15; > 100 µM (inactive) in the assay with HOP-62. In addition, the GI50 in the assay with HT-29, in the assay with K562, in the assay on KM12, with LOX IMVI, in the assay on M14 and in the assay on MDA-N was > 100 µM (inactive) in each case. Also, the GI50 in the assay on NCI-H226, in the assay with OVCAR-4, with SK-MEL-2, in the assay with SK-MEL-5, in the assay with SK-OV-3 and in the assay with SR was > 100 µM (inactive) throughout. The GI50 in the assay on TK-10 and in the assay with UACC-257 was > 100 µM (inactive) each time.
With `C=C(C)C1CC/C(C)=C/CCC2(C)OC2CC/C(CO)=C\C1O` (centres undefined), the GI50 is > 100 µM (inactive) in the assay with A549; > 100 µM (inactive) in the assay with ACHN; > 100 µM (inactive) with CAKI-1; > 100 µM (inactive) with DU-145; more than 100 µM with HCT-15; > 100 µM (inactive) with HOP-62. In addition, the GI50 was > 100 µM (inactive) in the assay with HT-29; 42 µM (inactive) in the assay with K562; > 100 µM (inactive) in the assay with KM12; > 100 µM (inactive) in the assay on LOX IMVI; 49.3 µM (inactive) with M14; > 100 µM (inactive) in the assay with MDA-N. Moreover, the GI50 in the assay with NCI-H226 was > 100 µM (inactive); in the assay with OVCAR-4, > 100 µM (inactive); in the assay on SK-MEL-2, > 100 µM (inactive); with SK-OV-3 it was > 100 µM (inactive); in the assay on SR, 36.9 µM (inactive); with TK-10 it was > 100 µM (inactive). For the same compound, the GI50 with UACC-257 was > 100 µM (inactive).
With `Cc1cn(S(=O)(=O)c2ccccc2)c2c(OCc3ccccc3)cc(NS(C)(=O)=O)cc12`, the GI50 was 9.82 µM (inactive) with A549; 20.4 µM (inactive) with ACHN; 72.3 µM (inactive) with CAKI-1; 31.3 µM (inactive) in the assay on DU-145; 12.9 µM with HCT-15; 50.2 µM (inactive) with HOP-62. Moreover, the GI50 in the assay on HT-29 was 4.42 µM (inactive); in the assay with K562, 20.1 µM (inactive); in the assay with KM12 it was 10.9 µM (inactive); with LOX IMVI, 11.4 µM (inactive); in the assay on M14, 19.2 µM (inactive); with MDA-N, 10.7 µM (inactive). Besides, the GI50 in the assay on NCI-H226 was 16.1 µM (inactive); with OVCAR-4, 6.35 µM (inactive); with SK-MEL-2, 18.1 µM (inactive); in the assay on SK-MEL-5, 4.35 µM (inactive); in the assay on SK-OV-3, 40.9 µM (inactive); in the assay with SR, 4.98 µM (inactive). The GI50 in the assay with TK-10 is > 85.9 µM (inactive); with UACC-257 it was 10.1 µM (inactive).
Consider `CCOC(=O)C1Cc2ccc(C)cc2C1=O` (centres undefined), for which the GI50 is > 100 µM (inactive) in the assay on A549; > 100 µM (inactive) with ACHN; > 100 µM (inactive) in the assay on CAKI-1; > 100 µM (inactive) in the assay on DU-145; 61.4 µM with HCT-15; > 100 µM (inactive) in the assay with HOP-62. Besides, the GI50 is > 100 µM (inactive) with HT-29; 31.4 µM (inactive) in the assay with K562; > 100 µM (inactive) in the assay on KM12; 62.5 µM (inactive) in the assay on LOX IMVI; > 100 µM (inactive) in the assay with M14; > 100 µM (inactive) in the assay with MDA-N. The GI50 was > 100 µM (inactive) with NCI-H226; 81.7 µM (inactive) in the assay on OVCAR-4; > 100 µM (inactive) with SK-MEL-2; 72.1 µM (inactive) with SK-MEL-5; > 100 µM (inactive) in the assay on SK-OV-3; 31.7 µM (inactive) with SR. For the same compound, the GI50 in the assay with TK-10 and in the assay on UACC-257 was > 100 µM (inactive) throughout.
Consider `CC(C)(C)OC(=O)Nc1nnc(S(N)(=O)=O)s1`, for which the GI50 in the assay with A549 was > 100 µM (inactive); in the assay on ACHN, > 100 µM (inactive); in the assay with CAKI-1, > 100 µM (inactive); with DU-145, > 100 µM (inactive); in the assay with HCT-15 it was more than 100 µM; with HOP-62 it was > 100 µM (inactive). In addition, the GI50 with HT-29, in the assay on K562, with KM12, with LOX IMVI, with M14 and in the assay with MDA-N was > 100 µM (inactive) throughout. The GI50 in the assay on NCI-H226, in the assay with OVCAR-4, with SK-MEL-2, in the assay with SK-MEL-5, with SK-OV-3 and in the assay on SR was > 100 µM (inactive) in each case. Besides, the GI50 in the assay on TK-10 and with UACC-257 was > 100 µM (inactive) each time.

(Values after ChEMBL document CHEMBL1201862, “PubChem BioAssay data set” (2004).)
